In this experiment the test system is OA articular chondrocytes. Kind of experiment: OA chondrocyte phenotype gene expression screening of BMP-7 peptides (RT-qPCR). Particulars: for COL2A1 / COX-2 / SOX9: Table 5; for suppression of the OA chondrocyte phenotype: independent of the tested concentration (1000, 100, 10 and 1 nM were tested). On the set-up: key to COX-2 / COL2A1 / SOX9: [+] denotes a significantly increased expression of chondrogenic marker genes SOX9 and COL2A1, or a significantly decreased expression of OA phenotypic marker COX-2 in OA articular chondrocytes, in comparison to untreated OA articular chondrocytes; key to IL-6 / ADAMTS5 / COL10A / BAPX1/NKX3.2 / ALP / RUNX2: —: [-] denotes the absence of a significant effect or a significantly decreased expression of chondrogenic marker genes BAPX1/NKX3.2, or a significantly increased expression of OA phenotypic markers IL-6, ADAMTS5, COL10A, ALP and RUNX2 in OA articular chondrocytes, in comparison to untreated OA articular chondrocytes. It counts as cell-based, human. The method, then: (§1) FIG. 2: The action of 20-mer peptides (10 nM) of SEQ ID NO: 2-17 (peptides with 1 or 2 amino acids intervals (18-19 amino acid overlap)) and a random peptide with a sequence according to SEQ ID NO: 49 on the expression of ADAMTS5 was determined on a validated pool of passage 2 OA human articular chondrocytes (n=18) and compared to full-length recombinant BMP-7 (1 nM). Samples were harvested after 24 hours and analyzed for indicated genes by RT-qPCR (normalized for 28S rRNA expression and relative to control conditions (no peptide exposure)). In the graphs, numbers on the x-axis represent individual peptides according to their SEQ ID NO's, error bars represent mean±SEM, statistical differences were calculated (one-way ANOVA with bonferroni correction) to control condition. *=p<0.05 lower than control condition for ADAMTS5. Random peptide is a peptide according to SEQ ID NO: 49.
as §1, with “3:” for “2:”, “ALP” for “ADAMTS5”, “ALP.” for “ADAMTS5.”
as §1, with “4:” for “2:”, “BAPX1/NKX3.2” for “ADAMTS5”, “BAPX1/NKX3.2.” for “ADAMTS5.”
as §1, with “5:” for “2:”, “COL10A1” for “ADAMTS5”, “COL10A1.” for “ADAMTS5.”
FIG. 6: The action of 20-mer peptides (10 nM) of SEQ ID NO: 2-17 (peptides with 1 or 2 amino acids intervals (18-19 amino acid overlap)) and a random peptide with a sequence according to SEQ ID NO: 49 on the expression of IL-6 was determined on a validated pool of passage 2 OA human articular chondrocytes (n=18) and compared to full-length recombinant BMP-7 (1 nM). […]
On the technique in general: Quantitative PCR measures a nucleic acid by following its amplification.

Where [1] appears, read: Table 2 (FIG. 2: 10 nM, 24 hours, RT-qPCR, 28S rRNA normalized), vs untreated OA articular chondrocytes.
Where [2] appears, read: Table 2 (FIG. 3: 10 nM, 24 hours, RT-qPCR, 28S rRNA normalized), vs untreated OA articular chondrocytes.
Setting [3] is: Table 2 (FIG. 4: 10 nM, 24 hours, RT-qPCR, 28S rRNA normalized), vs untreated OA articular chondrocytes.
The mark [4] stands for this setting: Table 2 (FIG. 5: 10 nM, 24 hours, RT-qPCR, 28S rRNA normalized), vs untreated OA articular chondrocytes.
The mark [5] stands for this setting: Table 2 (FIG. 6: 10 nM, 24 hours, RT-qPCR, 28S rRNA normalized), vs untreated OA articular chondrocytes.
Setting [6] is: Table 2 (FIG. 7: 10 nM, 24 hours, RT-qPCR, 28S rRNA normalized), vs untreated OA articular chondrocytes.
Where [7] appears, read: gene expression in OA articular chondrocytes vs untreated.
The mark [8] stands for this setting: Table 1, gene expression in OA articular chondrocytes vs untreated.

“12 (AISVLYFDDSSNVILKKYRN; listed as Homo sapiens) [compound 12]”: the ADAMTS5 entry under setting [1] is recorded as “+”. In addition, under setting [2], the ALP result is given as “+”. The BAPX1/NKX3.2 result under setting [3] is on record as “+”. In addition, under setting [4], the COL10A result was “+”. Further, the IL-6 result under setting [5] is given as “+”. Moreover, the RUNX2 entry under setting [6] is “+”. Under setting [7], the COL2A1 entry is “+”, the COX-2 result is listed as “+” and the SOX9 entry was “+”.
Turning to “10 (TQLNAISVLYFDDSSNVILK; listed as Homo sapiens) [compound 10]”, the ADAMTS5 entry under setting [1] is recorded as “+”. In addition, the ALP entry under setting [2] was “+”. Further, the BAPX1/NKX3.2 result under setting [3] is reported as “+”. Under setting [4], the COL10A entry was “-”. Further, the IL-6 entry under setting [5] is on record as “+”. The RUNX2 entry under setting [6] is “+”. For the same substance, under setting [7], the COL2A1 result was “+”, the COX-2 result is reported as “+” and the SOX9 entry is “+”.
For “1 (FINPETVPKPSSAPTQLNAISVLYFDDSSNVILKKYRNMVVRASGSH; listed as Homo sapiens) [compound 1]”, the ADAMTS5 result under setting [1] is given as “—”. For the same substance, the ALP result under setting [2] is given as “—”. For the same substance, the BAPX1/NKX3.2 entry under setting [3] is given as “—”. Moreover, the COL10A entry under setting [4] is reported as “—”. The IL-6 entry under setting [5] is recorded as “—”. Moreover, the RUNX2 entry under setting [6] is listed as “—”.
With “6 (PKPSSAPTQLNAISVLYFDD; listed as Homo sapiens) [compound 6]”, under setting [1], the ADAMTS5 entry is listed as “+”. Moreover, under setting [2], the ALP result is recorded as “+”. In addition, the BAPX1/NKX3.2 entry under setting [3] is on record as “+”. Moreover, the COL10A entry under setting [4] is on record as “+”. The IL-6 entry under setting [5] was “+”. Moreover, under setting [6], the RUNX2 result is recorded as “+”. Under setting [7], the COL2A1 entry is reported as “+”, the COX-2 entry is “+” and the SOX9 entry is recorded as “+”.
On to “9 (APTQLNAISVLYFDDSSNVI; listed as Homo sapiens) [compound 9]”, for which the ADAMTS5 entry under setting [1] is reported as “+”. In addition, under setting [2], the ALP result is on record as “+”. Further, the BAPX1/NKX3.2 result under setting [3] is “+”. Moreover, the COL10A result under setting [4] is “-”. Further, the IL-6 entry under setting [5] is on record as “+”. The RUNX2 entry under setting [6] is “+”. Besides, under setting [7], the COL2A1 result was “+”, the COX-2 result is “+” and the SOX9 result was “+”.
For the substance “14 (LYFDDSSNVILKKYRNMVVR; listed as Homo sapiens) [compound 14]”, under setting [1], the ADAMTS5 result is “+”. In addition, the ALP result under setting [2] is listed as “+”. For the same substance, the BAPX1/NKX3.2 result under setting [3] was “+”. In addition, under setting [4], the COL10A entry is “+”. Also, the IL-6 entry under setting [5] is given as “+”. The RUNX2 entry under setting [6] is listed as “—”. Further, under setting [7], the COL2A1 result is “+”, the COX-2 result is listed as “+” and the SOX9 entry is given as “+”.
“21 (SSDQRQACKKHELYVSFRDL; listed as Homo sapiens) [compound 21]”: under setting [8], the ADAMTS5 entry is on record as “—”, the ALP entry is reported as “—”, the BAPX1/NKX3.2 entry is listed as “—” and the COL10A entry was “—”. Under setting [8], the IL-6 result is listed as “—” and the RUNX2 entry is reported as “—”.
As for “TQLNAISVLYFDDSSNVILK (listed as Homo sapiens) [SEQ ID NO: 10]”, the “suppression of the OA chondrocyte phenotype” value (“suppression” below) is “efficiently suppressed the OA chondrocyte phenotype”.
As for “16 (DSSNVILKKYRNMVVRASGS; listed as Homo sapiens) [compound 16]”, the ADAMTS5 result under setting [1] is on record as “+”. Also, the ALP entry under setting [2] is listed as “+”. For the same substance, the BAPX1/NKX3.2 entry under setting [3] is “+”. The COL10A result under setting [4] is reported as “+”. Besides, the IL-6 result under setting [5] is “+”. Moreover, the RUNX2 result under setting [6] is listed as “—”. In addition, under setting [7], the COL2A1 result is on record as “+”, the COX-2 result was “+” and the SOX9 result is given as “+”.
“5 (VPKPSSAPTQLNAISVLYFD; listed as Homo sapiens) [compound 5]”: the ADAMTS5 result under setting [1] is given as “—”. Further, the ALP entry under setting [2] is “—”. In addition, the BAPX1/NKX3.2 entry under setting [3] was “—”. Further, the COL10A result under setting [4] was “—”. Moreover, under setting [5], the IL-6 result is on record as “—”. The RUNX2 entry under setting [6] is given as “+”.
For “15 (FDDSSNVILKKYRNMVVRAS; listed as Homo sapiens) [compound 15]”, the ADAMTS5 entry under setting [1] is “+”. Besides, the ALP entry under setting [2] is given as “+”. The BAPX1/NKX3.2 result under setting [3] is listed as “+”. In addition, under setting [4], the COL10A entry is “+”. Further, the IL-6 result under setting [5] is listed as “+”. Also, the RUNX2 result under setting [6] is on record as “—”. Under setting [7], the COL2A1 entry is “+”, the COX-2 entry is “+” and the SOX9 entry is “+”.
Turning to “3 (NPETVPKPSSAPTQLNAISV; listed as Homo sapiens) [compound 3]”, the ADAMTS5 result under setting [1] is listed as “—”. For the same substance, the ALP entry under setting [2] is “—”. In addition, the BAPX1/NKX3.2 entry under setting [3] is listed as “—”. Moreover, the COL10A entry under setting [4] was “—”. The IL-6 result under setting [5] is given as “—”. Besides, the RUNX2 entry under setting [6] is recorded as “—”.
Take “7 (KPSSAPTQLNAISVLYFDDS; listed as Homo sapiens) [compound 7]”: under setting [1], the ADAMTS5 entry is “+”. In addition, under setting [2], the ALP result was “+”. In addition, under setting [3], the BAPX1/NKX3.2 entry is “+”. Under setting [4], the COL10A entry was “+”. In addition, the IL-6 entry under setting [5] is reported as “+”. Under setting [6], the RUNX2 entry was “+”. Further, under setting [7], the COL2A1 entry is recorded as “+”, the COX-2 result is “+” and the SOX9 result is given as “+”.
As for “APTQLNAISVLYFDDSSNVI (listed as Homo sapiens) [SEQ ID NO: 9]”, the “suppression” value is given as “efficiently suppressed the OA chondrocyte phenotype”.
As to “22 (DLGWQDWIIAPEGYAAYYCE; listed as Homo sapiens) [compound 22]”, under setting [8], the ADAMTS5 result is reported as “—”, the ALP entry is “—”, the BAPX1/NKX3.2 entry is reported as “—” and the COL10A result is given as “—”. Under setting [8], the IL-6 entry was “—” and the RUNX2 result is recorded as “—”.
For the substance “18 (PKPSSAPTQLNAISVLYFDDSSNVILKKYRNMVVRASGSH; listed as Homo sapiens) [compound 18]”, the ADAMTS5 result under setting [1] is “+”. Further, the ALP result under setting [2] is “+”. The BAPX1/NKX3.2 entry under setting [3] is listed as “+”. In addition, under setting [4], the COL10A result is listed as “+”. In addition, under setting [5], the IL-6 entry is given as “+”. The RUNX2 result under setting [6] was “+”.
Consider “LYFDDSSNVILKKYRNMVVR (listed as Homo sapiens) [SEQ ID NO: 14]”, for which the “suppression” value was “efficiently suppressed the OA chondrocyte phenotype”.
